Assay [1] has as its target T1, menin/MLL (terbium chelate-labeled menin, FITC-MBM1 peptide) (Homo sapiens, UniProt O00255, T541A).
T1 construct: Menin (a.a 1-610-6xhis tag, 2.3 mg/mL in 20 mM Hepes)
T1 sequence (O00255 with tags, fused parts or gaps T541A): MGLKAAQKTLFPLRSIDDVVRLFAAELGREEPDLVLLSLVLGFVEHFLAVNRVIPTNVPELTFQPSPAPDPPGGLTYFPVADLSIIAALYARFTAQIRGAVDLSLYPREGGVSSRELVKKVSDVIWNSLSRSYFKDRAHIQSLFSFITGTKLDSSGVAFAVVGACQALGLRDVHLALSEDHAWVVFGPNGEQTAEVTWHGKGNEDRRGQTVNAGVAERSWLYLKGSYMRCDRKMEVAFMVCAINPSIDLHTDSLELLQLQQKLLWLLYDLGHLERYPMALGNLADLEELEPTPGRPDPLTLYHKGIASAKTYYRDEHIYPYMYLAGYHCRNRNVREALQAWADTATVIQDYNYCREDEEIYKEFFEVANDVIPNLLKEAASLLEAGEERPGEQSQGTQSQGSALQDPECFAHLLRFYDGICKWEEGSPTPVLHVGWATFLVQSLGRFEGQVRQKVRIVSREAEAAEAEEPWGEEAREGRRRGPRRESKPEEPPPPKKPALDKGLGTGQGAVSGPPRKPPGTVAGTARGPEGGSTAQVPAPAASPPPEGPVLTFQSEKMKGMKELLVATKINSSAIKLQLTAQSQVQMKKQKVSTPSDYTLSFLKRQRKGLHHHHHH
Nature of the assay: Menin/MLL homogenous time-resolved fluorescence (HTRF) assay. The assay is classed as binding. As to conditions: 30 min incubation. The gist of the method: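 Terbium-labeled menin (a.a. 1-610, His-tagged; […]) pre-incubated 30 min with compound, then 75 nM FITC-MBM1 peptide added for 15 min at ambient temperature in Tris pH 7.5 buffer, 0.5% DMSO. HTRF 520/490 nm ratio read; IC50 from 11-point four-fold titrations, typically from 10 μM.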
On the technique in general: In TR-FRET formats the signal depends on donor and acceptor labels being close together.

Another assay relates to MEIS1 mRNA expression. Nature of the assay: MEIS1 mRNA expression assay (Quantigene Singleplex) in MOLM14 cells. The assay is classed as cell-based, human. The conditions noted are these: Homo sapiens, MOLM-14, 48 h, 48 hours incubation. The gist of the method: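 MOLM14 cells, 3,750/well, exposed to increasing compound concentrations for 48 h. MEIS1 mRNA measured by QuantiGene Singleplex branched-DNA hybridization (lysis 45 min, hybridization 18–22 h, both 55 °C), normalized to RPL28. IC50 fitted to background-corrected fold change versus DMSO.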

One may read the IC50 as the concentration needed to halve the response being measured. As for `Cc1cncc2c1c(C[C@H]1CCN(CC3CCCCC3)C1)cn2-c1ccc(F)cc1C(=O)N(C)C(C)C` [Compound 194], the IC50 in assay [1] is 0.072 nM; in the assay on MEIS1 mRNA expression, 66 nM.
Turning to `CC(=O)N1CCC(CN2C[C@@H](Cc3cn(-c4ccc(F)cc4C(=O)N(C)C(C)C)c4cncc(C)c34)C[C@H]2C)CC1` [Compound 131], the results for the IC50 (in assay [1]; in the assay with MEIS1 mRNA expression) were 0.132 nM and 129 nM, respectively.
Take `Cc1cncc2c1c(CC1CN(C3CC4(CC(NC(=O)OC(C)(C)C)C4)C3)C1)cn2-c1ccc(F)cc1C(=O)N(C)C(C)C` (centres unmarked) [Compound 91]: the IC50 stood at 0.155 nM in assay [1] and 94 nM with MEIS1 mRNA expression.
Taken in the same sequence, the figures for `Cc1cncc2c1c(C[C@@H]1CCN([C@H](CN(C)C)C3CCOCC3)C1)cn2-c1ccc(F)cc1C(=O)N(C)C(C)C` (single isomer, unassigned) [Compound 240b] were 0.151 nM and 38 nM.
Taken in the same sequence, the figures for `Cc1cncc2c1c(C[C@@H]1CCN(CC3CCN(C(=O)NC4CC4)CC3)C1)cn2-c1ccc(F)cc1C(=O)N(C)C(C)C` [Compound 152] were 0.053 nM and 197 nM.
For `Cc1cncc2c1c(CC1CN(CC3(O)CCOCC3)C1)cn2-c1ccc(F)cc1C(=O)N(C)C(C)C` [Compound 307], in that order: 0.044 nM and 48 nM.
Take `Cc1cncc2c1c(C[C@@H]1CCN(CC3CCOCC3)C1)cn2-c1ccc(F)cc1C(=O)N1CCC[C@H]1CO` [Compound 360]: the IC50 in assay [1] amounted to 0.127 nM; in the assay on MEIS1 mRNA expression, 107 nM.
Taken in the same sequence, the figures for `CC(=O)N1CCC(N2CC(Cc3cn(-c4ccc(F)cc4C(=O)N(C)C(C)C)c4cncc(C)c34)C2)C[C@@H]1C` (single isomer, unassigned) [Compound 293a] were 0.459 nM and 148 nM.
For `Cc1cncc2c1c(CC1CCN(CC3CCN(C(=O)CCO)CC3)C1)cn2-c1ccc(F)cc1C(=O)N(C)C(C)C` (single isomer, unassigned) [Compound 82], in that order: about 0.035 nM and 11 nM.
Taken in the same sequence, the figures for `CNC(=O)C1CC(CN2CCC(Cc3cn(-c4ccc(F)cc4C(=O)N(C)C(C)C)c4cncc(C)c34)CC2)C1` (centres unmarked) [Compound 129] were 0.291 nM and 277 nM.
With `Cc1cncc2c1c(CC1CN(CC3CCOCC3)C1)cn2-c1ccc(F)cc1C(=O)N(C)C1(CO)CC1` [Compound 277], the IC50 in assay [1] was 0.481 nM; with MEIS1 mRNA expression, about 502 nM.
For `Cc1cncc2c1c(CC1CN(CC(=O)N3CCCCC3)C1)cn2-c1ccc(F)cc1C(=O)N(C)C(C)C` [Compound 98], in that order: 0.747 nM and about 535 nM.
For `Cc1cncc2c1c(C[C@@H]1CCN([C@H](C)C3CCOCC3)C1)cn2-c1ccc(F)cc1[S@@](=N)(=O)C(C)C` (single isomer, unassigned) [Compound 182a], in that order: 0.462 nM and 287 nM.
For `CC(=O)N1CCC2(CCCC(N3CC(Cc4cn(-c5ccc(F)cc5C(=O)N(C)C(C)C)c5cncc(C)c45)C3)C2)C1` (centres unmarked) [Compound 303], in that order: 0.179 nM and about 77 nM.
Consider `Cc1cncc2c1c(CC1CN(C[C@H]3CC[C@@H](C(=O)N(C)C)CC3)C1)cn2-c1ccc(F)cc1C(=O)N(C)C(C)C` [Compound 221], for which the values for the IC50 (in assay [1]; with MEIS1 mRNA expression) were 0.311 nM and 109 nM, respectively.
As to `CC(=O)N1CCC2(CCC2N2CC(Cc3cn(-c4ccc(F)cc4C(=O)N(C)C(C)C)c4cncc(C)c34)C2)CC1` (centres unmarked) [Compound 296], the IC50 in assay [1] was determined as 0.339 nM; in the assay with MEIS1 mRNA expression it was 549 nM.
Taken in the same sequence, the figures for `COCCNCCCC(C(C)C)N1CC[C@@H](Cc2cn(-c3ccc(F)cc3C(=O)N(C)C(C)C)c3cncc(C)c23)C1` (mixture of isomers) [Compound 14] were 0.054 nM and under 3.6 nM.
Taken in the same sequence, the figures for `CC(=O)N1CCC(CN2CCC[C@H](Cc3cn(-c4ccc(F)cc4C(=O)N(C)C(C)C)c4cncc(C)c34)C2)CC1` [Compound 145] were 1.06 nM and about 748 nM.
For `Cc1cncc2c1c(CC1CCN(CC3CCN(C(=O)N(C)C)CC3)CC1)cn2-c1ccc(F)cc1C(=O)N(C)C(C)C` [Compound 235], in that order: 0.097 nM and 14 nM.

Source of the values: patent US20230250096A1, “SUBSTITUTED PHENYL-1H-PYRROLO[2,3-c] PYRIDINE DERIVATIVES” (Janssen Pharmaceutica NV, priority 2021, published 2023).
